Data on one compound can be found in patent US20260108442A1, “COMPOUND FOR USE IN PROTECTING SKIN” (TDELTAS LIMITED, priority 2013, published 2026).

SMILES strings stand for the structures.

One assay deals with hands of the user (skin). As to the kind of experiment: Neat topical application to dry hands, visual inspection. In kind it is in vivo. The note with it: used neat, massaged into dry hands, inspected after 30 minutes. The text has this: D-betahydroxybutyrate butanediol monoester was used neat in this experiment. The hands of the user were visually inspected prior to application of the D-betahydroxybutyrate butanediol monoester. […] D-betahydroxybutyrate butanediol monoester was applied to the hands and massaged in to the skin thoroughly.

Assay [1] deals with Primary human dermal fibroblasts (HDF). As to the kind of experiment: Live and dead assay (Calcein AM / EthD-III) of human dermal fibroblast growth. The assay is classed as cell-based. The note with it: 4 mM in basal medium, after 10 days incubation, FIG. 1. As to the method:
Primary human dermal fibroblasts (HDF), with a seeding capacity of 2,500 cells/cm^2, […] (HF) basal medium (TCS Cellworks) or basal medium containing 4 mM of the ketone ester, deltaG. The basal medium was changed daily. Cell viability was determined using a live and dead assay kit, with two colour fluorescence staining of live and dead cells using the probes, Calcein AM and EthD-III.

Assay [2] deals with Human dermal fibroblast cells. In words: Cell survival after UVB irradiation, Trypan blue exclusion. The settings on record: viable cells at 48 hours after irradiation, FIG. 2. In kind it is cell-based. As to the method:
Human dermal fibroblast cells were cultured in basal medium in 6-well plates at 50,000 cells per well. The cells were incubated in medium alone or with added 4 mM R-3-hydroxybutyl-(R)-3-hydroxybutyrate. After reaching 80-90% confluence, cells were washed with phosphate-buffered saline and the medium was replaced with a thin layer of Hanks buffer, (a balanced salt solution designed to use with cells in non-CO2 atmospheric conditions). Cells were irradiated at doses of 25, 50, 100, 150, 300 and 600 mJ/cm^2 using a portable UVB source (302 nm) with a fluence rate of 0.9 mW/cm^2 at cell level. UV irradiation was performed in a fume hood to maintain sterility. After irradiation, cells were washed and incubated in medium alone or with added 4 mM R-3-hydroxybutyl-(R)-3-hydroxybutyrate (as they had been before irradiation). Another group of irradiated cells, which had initially been grown in basal medium without deltaG, was incubated with added 4 mM R-3-hydroxybutyl-(R)-3-hydroxybutyrate. Cell survival was determined by counting viable cells using Trypan blue exclusion at 48 hours after irradiation.

For the compound `C[C@@H](O)CCOC(=O)C[C@@H](C)O` [R-3-hydroxybutyl-(R)-3-hydroxybutyrate], the “visual inspection of hands (dryness, wrinkling, feel)” value in the assay with hands of the user (skin) is “visually noticeable improvement in properties including less dryness, less wrinkling and an improved feel”. Further, the dead cells result in assay [1] (compared with control) was “fewer dead cells”. For the same compound, in assay [1] (vs. 75% in control, P<0.05), the live cells was 89%. The “protection from UVB radiation (cell survival)” value in assay [2] (4 mM both before and after radiation exposure, compared with after radiation only) is recorded as “conferred no further benefit”; in assay [2] (4 mM given to the cells after radiation, UVB 302 nm, doses between 150 and 600 mJ/cm^2, p<0.05), “protected human dermal fibroblasts from UVB radiation”.
